Where two headings read alike, the source gives them in different places.
Experiments:
[1] = target: T1, recombinant Tetrahymena thermophila Glutathione S Transferase Mu34 (TtGSTm34-8xHis) enzyme, SEQ ID NO: 1 (Tetrahymena thermophila, UniProt I7M2D2); assay: Enzyme kinetics of recombinant TtGSTm34-8xHis for substrates GSH and CDNB (spectrophotometric at 340 nm, Lineweaver-Burk); format: biochemical; conditions: 200 mM potassium phosphate buffer, 25°C; for Km: 7 substrate concentrations 0.1125-3.6 mM, the other substrate (GSH or CDNB) held at 0.9 mM, Lineweaver-Burk graph; for Kcat: kcat = Vmax/Et, the other substrate held at 0.9 mM
T1 sequence (I7M2D2 39-257): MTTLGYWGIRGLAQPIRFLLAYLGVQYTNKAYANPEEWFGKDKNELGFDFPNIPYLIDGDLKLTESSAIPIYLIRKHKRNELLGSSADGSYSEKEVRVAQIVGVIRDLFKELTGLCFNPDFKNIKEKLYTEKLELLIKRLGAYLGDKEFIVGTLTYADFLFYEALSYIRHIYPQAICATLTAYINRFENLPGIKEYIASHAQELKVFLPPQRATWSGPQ
Procedure: Determination of GST enzyme activities of affinity purified proteins was performed spectrophotometrically in the presence of 1-chloro-2,4-dinitrobenzene (CDNB) as substrate. […] The enzyme activities were measured with BioTek The Synergy ™ HT Elisa device using Gen5 software. The O.D values for enzyme activity were determined at 340 nm for 30 minutes with 2 minutes intervals, using BioTek The Synergy™ HT Elisa Reader kinetics program.
Unit value of activity is defined as the amount of enzyme that catalyzes 1 µmol substrate at 25°C (CDNB extinction coefficient340 nm = 9.6 mM^-1 cm^-1). The enzyme activities were first calculated in terms of U/ml. Then these values were divided by protein concentrations that were determined by Bradford method (Pierce™ Coomassie Plus Bradford Assay Reagent Cat no: 23238). This way specific activities were calculated in terms of U/mg.
Then activity measurements were carried out in 200 mM potassium phosphate buffer at 25°C for 7 different CDNB concentrations: 0,1125 mM, 0,225 mM, 0,45 mM, 0,9 mM, 1,8 mM, 2,7 mM ve 3,6 mM. A 1/V^- 1 [CDNB] Lineweaver-Burk graph was drawn according to the results obtained (Figure 8). With this graphical aid, Km and Vmax values for CDNB were determined.
These calculations were followed by quantitative protein assay (Bradford) and total enzyme amount (Et) was determined. Kcat value, which reflects the enzyme turnover number was calculated using the formula given below: kcat = Vmax /Et [formula]
One way of comparing the catalytic effects of various enzymes or the conversion of different substrates to the product with the same enzyme is to find the specificity constant (V0) for the reactions. The specificity constant is calculated by the following formula: V0 = kcat /km [formula]

[2] = target: T2, mu class glutathione S-transferase from Manila clam Ruditapes philippinarum (RpGSTµ) (Ruditapes philippinarum, UniProt G9HSP7); conditions: from Bathige et al., 2014, cited from earlier work
T2 sequence (G9HSP7 1-217): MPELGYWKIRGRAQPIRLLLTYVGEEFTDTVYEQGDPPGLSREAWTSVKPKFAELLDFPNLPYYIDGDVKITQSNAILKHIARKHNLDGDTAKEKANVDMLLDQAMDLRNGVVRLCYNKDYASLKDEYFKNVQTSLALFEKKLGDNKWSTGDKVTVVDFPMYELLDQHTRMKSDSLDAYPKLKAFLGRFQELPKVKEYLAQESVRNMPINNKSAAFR

Compound	Km [1]	Kcat [1]	Km [2]	Km ([1]; read-out: Km)	Km ([2]; read-out: Km)
O=[N+]([O-])c1ccc(Cl)c([N+](=O)[O-])c1 [CDNB, 1-Chloro-2,4-dinitrobenzene]	470 µM	195.4 s⁻¹	560 µM		
N[C@@H](CCC(=O)N[C@@H](CS)C(=O)NCC(=O)O)C(=O)O [GSH, glutathione]		186.9 s⁻¹		540 µM	1030 µM

Source: patent EP3856897B1 (Anadolu Universitesi, priority 2018, dated 2020)
